pIC50: −log10 of the molar value.
Biological target: human PD-L1 / Human PD-1 (Homo sapiens (Human), UniProt Q9NZQ7)
Assay: Enzyme-Linked Immunosorbent Assay (ELISA), PD-1/PD-L1 binding
Conditions: plate-coated human PD-L1, biotinylated human PD-1
In short: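 Plates were coated with human PD-L1 at […]. Biotinylated human PD-1 (0.3 μg/mL) was added with 1:5 serially diluted compound for 1 h at 37 °C. Bound PD-1 was detected with streptavidin-HRP (1 h) and TMB (20 min), with absorbance read at 450 nm.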

human PD-L1 / Human PD-1, sequence (Q9NZQ7 19-239): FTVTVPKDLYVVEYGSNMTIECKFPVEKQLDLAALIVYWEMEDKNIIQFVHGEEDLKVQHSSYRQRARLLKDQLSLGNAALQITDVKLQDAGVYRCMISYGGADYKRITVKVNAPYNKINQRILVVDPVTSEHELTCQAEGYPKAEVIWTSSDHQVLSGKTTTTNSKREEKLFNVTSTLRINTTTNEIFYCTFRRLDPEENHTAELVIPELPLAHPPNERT

| Structure (SMILES) | pIC50 |
| --- | --- |
| COC(=O)C1(O)CCN(CCCOc2cccc(-c3cccc4c3CC[C@@H]4Oc3cc(OCc4cncc(C#N)c4)c(CN[C@H](C(=O)O)[C@@H](C)O)cc3Cl)c2C)C1 (stereo partly drawn) | > 8.30 |
| CCOc1cc(O[C@H]2CCc3c(-c4cccc(OCCCN5CCCC5(C)C)c4C)cccc32)c(Cl)cc1CNC[C@@H]1CCC(=O)N1 [drawing 377] | 6.30 to 8.30 |
| Cc1c(OCCCN2CCC(F)CC2)cccc1-c1cccc2c1C[C@@H](F)[C@@H]2Oc1cc(OCc2cc(C#N)cc(C#N)c2)c(CN[C@H]2CCC(=O)NC2)cc1Cl | 6.30 to 8.30 |
| CC(CO)(NCc1cc(Cl)c(O[C@H]2CCc3c(-c4cccc(OCCCN5CC(F)C5)c4Cl)cccc32)cc1OCc1cncc(C#N)c1)C(=O)O (stereo partly drawn) | > 8.30 |
| CCOc1cc(O[C@H]2CCc3c(-c4cccc(OCCCN5CCC[C@@H]5C(C)C)c4C)cccc32)c(Cl)cc1CNC[C@@H]1CCC(=O)N1 | > 8.30 |
| CCOc1cc(O[C@H]2CCc3c(-c4cccc(OCCCN5CCC5(C)C)c4C)cccc32)c(Cl)cc1CN(C)CCCCC(=O)O | 6.30 to 8.30 |
| CCOc1cc(O[C@H]2CCc3c(-c4cccc(OCCCN5CCC(F)CC5)c4Cl)cccc32)c(Cl)cc1CN[C@@H]1CCOC[C@H]1O | 6.30 to 8.30 |
| Cc1c(OCCCN2CCC(O)CC2)cccc1-c1cccc2c1CC[C@@H]2Oc1cc(OCc2cncc(C#N)c2)c(CN[C@@H]2CCCC[C@@H]2O)cc1Cl | > 8.30 |
| Cc1c(OCCCN2CCC(O)CC2)cccc1-c1cccc2c1CC[C@@H]2Oc1cc(OCc2cncc(C#N)c2)c(CN2CC[C@@H](O)C2)cc1Cl | > 8.30 |
| C[C@@H](O)[C@H](NCc1cc(Cl)c(O[C@H]2CCc3c(-c4cccc(OCCCN5CC(O)C5)c4Cl)cccc32)cc1OCc1cncc(C#N)c1)C(=O)O | > 8.30 |
| N#Cc1cncc(COc2cc(O[C@H]3CCc4c(-c5cccc(OCCCN6CC7(C6)CC(F)(F)C7)c5Cl)cccc43)c(Cl)cc2CN[C@H]2CC[C@@H]2O)c1 | 6.30 to 8.30 |
| C[C@@](CO)(NCc1cc(Cl)c(O[C@H]2CCc3c(-c4cccc(OCCCN5CCC5)c4Cl)cccc32)cc1OCc1cncc(C#N)c1)C(=O)O | > 8.30 |
| CCOc1cc(O[C@H]2CCc3c(-c4cccc(OCCCN5CCC5(C)C)c4C)cccc32)c(Cl)cc1CN1CCC1(C)C | 6.30 to 8.30 |
| Cc1c(OCCCN2CCC(F)CC2)cccc1-c1cccc2c1CC[C@@H]2Oc1cc(OCc2cc(C#N)cc(C#N)c2)c(CN[C@@H]2CCOC[C@H]2O)cc1Cl | > 8.30 |
| Cc1c(OCCCN2CCC(F)CC2)cccc1-c1cccc2c1CC[C@@H]2Oc1cc(OCc2cc(C#N)cc(C#N)c2)c(CN[C@H]2CCCNC2=O)cc1Cl | 6.30 to 8.30 |
| N#Cc1cncc(COc2cc(O[C@H]3CCc4c(-c5cccc(OCCCN6CCC(O)CC6)c5Cl)cccc43)c(Cl)cc2CN[C@@H]2CCCC[C@@H]2O)c1 | > 8.30 |
| CC1(C)CC(O)CCN1CCCOc1cccc(-c2cccc3c2CC[C@@H]3Oc2cc(OCc3cncc(C#N)c3)c(CN[C@@H]3CCCC[C@@H]3O)cc2Cl)c1Cl (stereo partly drawn) | > 8.30 |
| C[C@@H](O)[C@H](NCc1cc(Cl)c(O[C@H]2CCc3c(-c4cccc(OCCCN5CC(O)C5)c4Cl)cccc32)cc1OCc1cncc(C#N)c1)C(=O)NS(C)(=O)=O | > 8.30 |
| Cc1c(OCCCN2CCC(O)CC2)cccc1-c1cccc2c1CC[C@@H]2Oc1cc(OCc2cncc(C#N)c2)c(CN[C@@H](CNC(=N)N)C(=O)O)cc1Cl | > 8.30 |
| N#Cc1cncc(COc2cc(O[C@H]3CCc4c(-c5cccc(OCCCN6CC7(CC(F)C7)C6)c5Cl)cccc43)c(Cl)cc2CN[C@H]2CCC[C@H]2O)c1 | > 8.30 |

| Structure (SMILES) | pIC50 |
| --- | --- |
| COc1cc(O[C@H]2CCc3c(-c4cccc(OCCCN5CCC(F)CC5)c4Cl)cccc32)c(Cl)cc1CN[C@@H]1CCCC[C@@H]1O | 6.30 to 8.30 |
| Cc1c(OCCCN2CCC(C)(C)CC2)cccc1-c1cccc2c1CC[C@@H]2Oc1cc(OCc2cc(C#N)cc(C#N)c2)c(CN[C@H]2CCC(=O)NC2)cc1Cl | 6.30 to 8.30 |
| CN1CCC(COc2cccc(-c3cccc4c3CC[C@@H]4Oc3cc(OCc4cncc(C#N)c4)c(CNC[C@H]4CCC(=O)N4)cc3Cl)c2Cl)C1 (stereo partly drawn) | > 8.30 |
| CCOc1cc(O[C@H]2CCc3c(-c4cccc(OCCCN5CCC5(C)C)c4C)cccc32)c(Cl)cc1CNCCCS(=O)(=O)O | 6.30 to 8.30 |
| CCOc1cc(O[C@H]2CCc3c(-c4cccc(OCCCN5CCC5(C)C)c4C)cccc32)c(Cl)cc1CNCCO | > 8.30 |
| N#Cc1cncc(COc2cc(O[C@H]3CCc4c(-c5cccc(OCCCN6CC7(CC(F)C7)C6)c5Cl)cccc43)c(Cl)cc2CN[C@@H]2CCC[C@H]2O)c1 | > 8.30 |
| CCOC(=O)[C@@H](NCc1cc(Cl)c(O[C@H]2CCc3c(-c4cccc(OCCCN5CCC(O)CC5)c4C)cccc32)cc1OCc1cncc(C#N)c1)[C@@H](C)O | 6.30 to 8.30 |
| CCOc1cc(O[C@H]2CCc3c(-c4cccc(OCCCN5CCC5(C)C)c4C)cccc32)c(Cl)cc1CN(CC)CCC(=O)OC | 6.30 to 8.30 |
| CCOc1cc(O[C@H]2CCc3c(-c4cccc(OCCCN5[C@H](C)CC[C@H]5C)c4C)cccc32)c(Cl)cc1CNC[C@@H]1CCC(=O)N1 | > 8.30 |
| N#Cc1cncc(COc2cc(O[C@H]3CCc4c(-c5cccc(OCCCN6CCCCC6)c5Cl)cccc43)c(Cl)cc2CNC[C@H]2CCC(=O)N2)c1 | > 8.30 |
| COC(=O)[C@@H](NCc1cc(Cl)c(O[C@H]2CCc3c(-c4cccc(OCCCN5CCC(O)CC5)c4C)cccc32)cc1OCc1cncc(C#N)c1)[C@@H](C)O | 6.30 to 8.30 |
| N#Cc1cncc(COc2cc(O[C@H]3CCc4c(-c5cccc(OCCCN6CCC(O)CC6)c5Cl)cccc43)c(Cl)cc2CN[C@@H](CO)C(=O)O)c1 | > 8.30 |
| Cc1c(OCCCN2CC(O)C2)cccc1-c1cccc2c1CC[C@@H]2Oc1cc(OCc2cncc(C#N)c2)c(CNCC2CCC(=O)N2)cc1Cl (stereo partly drawn) | > 8.30 |
| Cc1c(OCCCN2CCC(C)(F)CC2)cccc1-c1cccc2c1C[C@H](F)[C@@H]2Oc1cc(OCc2cc(C#N)cc(C#N)c2)c(CN[C@H]2CCC(=O)NC2)cc1Cl | 6.30 to 8.30 |
| N#Cc1cncc(COc2cc(O[C@H]3CCc4c(-c5cccc(OCCCN6CCC(F)CC6)c5Cl)cccc43)c(Cl)cc2CN2CCCC3(C2)NC(=O)NC3=O)c1 (stereo partly drawn) | 6.30 to 8.30 |
| Cc1c(OCCCN2CCCC2)cccc1-c1cccc2c1CC[C@@H]2Oc1cc(OCc2cc(C#N)cc(C#N)c2)c(CN[C@H]2CCC(=O)NC2)cc1Cl | > 8.30 |
| N#Cc1cc(C#N)cc(COc2cc(O[C@H]3CCc4c(-c5cccc(OCCCN6CCC(F)CC6)c5Cl)cccc43)c(Cl)cc2CNC[C@H]2CCC(=O)N2)c1 | > 8.30 |
| Cc1c(OCCCN2CCC(O)CC2)cccc1-c1cccc2c1CC[C@@H]2Oc1cc(OCc2cncc(C#N)c2)c(CN[C@@H]2CCCC[C@H]2O)cc1Cl | > 8.30 |
| N#Cc1cncc(COc2cc(O[C@H]3CCc4c(-c5cccc(OCCCN6CCC(F)CC6)c5C(F)(F)F)cccc43)c(Cl)cc2CNCC2CCC(=O)N2)c1 (stereo partly drawn) | 6.30 to 8.30 |
| CCOc1cc(O[C@H]2CCc3c(-c4cccc(OCCCN5CC[C@@H](O)C5)c4C)cccc32)c(Cl)cc1CN[C@H](C(=O)O)[C@@H](C)O | > 8.30 |

More lines, now with the values ahead:

| pIC50 | Structure (SMILES) |
| --- | --- |
| > 8.30 | Cc1c(OCCCN2CCC(F)CC2)cccc1-c1cccc2c1CC[C@@H]2Oc1cc(OCc2cc(C#N)cc(C#N)c2)c(CN[C@H]2CCOC[C@H]2O)cc1Cl |
| > 8.30 | Cc1c(OCCCN2CC(O)C2)cccc1-c1cccc2c1CC[C@@H]2Oc1cc(OCc2cncc(C#N)c2)c(CN[C@H](C(=O)O)[C@@H](C)O)cc1Cl |
| > 8.30 | Cc1c(OCCCN2CCC(O)CC2)cccc1-c1cccc2c1CC[C@@H]2Oc1cc(OCc2cc(C#N)cc(C#N)c2)c(CN[C@H](C(=O)O)[C@@H](C)O)cc1Cl |
| > 8.30 | CCOc1cc(O[C@H]2CCc3c(-c4cccc(OCCCN5CC(O)C5)c4C)cccc32)c(Cl)cc1CN[C@@H](CO)C(=O)O |
| 6.30 to 8.30 | Cc1c(OCCCN2CCC(C)(F)CC2)cccc1-c1cccc2c1CC[C@@H]2Oc1cc(OCc2cncc(C#N)c2)c(CN[C@H]2CCC(=O)NC2)cc1Cl |
| > 8.30 | C[C@@H](O)[C@H](NCc1cc(Cl)c(O[C@H]2CCc3c(-c4cccc(OCCCN5CC(O)C5)c4Cl)cccc32)cc1OCc1cncc(C#N)c1)C(N)=O |
| 6.30 to 8.30 | CCOc1cc(O[C@H]2CCc3c(-c4cccc(OCCCN5CCC5(C)C)c4C)cccc32)c(Cl)cc1CN(CCC(=O)O)C(C)C |
| > 8.30 | Cc1c(OCCCN2CC3(CC(O)C3)C2)cccc1-c1cccc2c1CC[C@@H]2Oc1cc(OCc2cc(C#N)cc(C#N)c2)c(CNC[C@H]2CCC(=O)N2)cc1Cl |
| 6.30 to 8.30 | Cc1c(OCCCN2CCC(F)CC2)cccc1-c1cccc2c1CC[C@@H]2Oc1cc(OCc2cc(C#N)cc(C#N)c2)c(CNC[C@H]2CCC(=O)N2)cc1Cl |
| > 8.30 | N#Cc1cncc(COc2cc(O[C@H]3CCc4c(-c5cccc(OCCCN6CC7(CC(F)C7)C6)c5Cl)cccc43)c(Cl)cc2CNC[C@@H]2CCC(=O)N2)c1 |
| 6.30 to 8.30 | Cc1c(OCCCN2CCC(C)(F)CC2)cccc1-c1cccc2c1CC[C@@H]2Oc1cc(OCc2cc(C#N)cc(C#N)c2)c(CN2CCC3(C2)NC(=O)NC3=O)cc1Cl (stereo partly drawn) |
| > 8.30 | N#Cc1cncc(COc2cc(O[C@H]3CCc4c(-c5cccc(OCCCN6CCC(F)CC6)c5Cl)cccc43)c(Cl)cc2CN[C@@H]2CCC(=O)NC2)c1 |
| > 8.30 | Cc1c(OCCCN2CCC(O)CC2)cccc1-c1cccc2c1CC[C@@H]2Oc1cc(OCc2cncc(C#N)c2)c(CN[C@H](C(=O)O)[C@@H](C)O)cc1Cl |
| > 8.30 | CCOc1cc(O[C@H]2CCc3c(-c4cccc(OCCCN5CCCC5(C)C)c4C)cccc32)c(Cl)cc1CNC[C@@H]1CCC(=O)N1 [drawing 395] |
| > 8.30 | Cc1c(OCCCN2CCC(F)CC2)cccc1-c1cccc2c1CC[C@@H]2Oc1cc(OCc2cc(C#N)cc(C#N)c2)c(CN[C@H]2CCC[C@H]2O)cc1Cl |
| > 8.30 | Cc1c(OCCCN2CCC(F)CC2)cccc1-c1cccc2c1CC[C@@H]2Oc1cc(OCc2cc(C#N)cc(C#N)c2)c(CNCC(=O)NS(C)(=O)=O)cc1Cl |
| 6.30 to 8.30 | CCOc1cc(O[C@H]2CCc3c(-c4cccc(OCCCN5CCCCC5(C)C)c4C)cccc32)c(Cl)cc1CNC[C@@H]1CCC(=O)N1 |
| 6.30 to 8.30 | COc1cc(O[C@H]2CCc3c(-c4cccc(OCCCN5CC(O)C5)c4Cl)cccc32)cc(OC)c1CN[C@@](C)(CO)C(=O)O |
| > 8.30 | Cc1c(OCCCN2CC(C)(C)C2)cccc1-c1cccc2c1CC[C@@H]2Oc1cc(OCc2cc(C#N)cc(C#N)c2)c(CN[C@H]2CCC(=O)NC2)cc1Cl |
| > 8.30 | Cc1c(OCCCN2CCC(O)CC2)cccc1-c1cccc2c1CC[C@@H]2Oc1cc(OCc2cc(C#N)cc(C#N)c2)c(CN[C@@H](CO)C(=O)O)cc1Cl |
